Reference: publication PMC4049246 (The Journal of Organic Chemistry, 2014)

Experiments:
ERBB2 = ERBB2 (Homo sapiens, UniProt P04626); test: Inhibition of NRGβ1-induced ERBB2 tyrosine phosphorylation in MCF7 cells; type: cell-based; settings: for inhibition of NRGβ1-induced phosphorylation of ERBB2: MCF7 cells
[1] = Octanol/water partition coefficient; type: physicochemical
[2] = UV-vis absorption, fluorescence emission and lifetime in chloroform; settings: for Δν / ε / ϕem: CHCl3; for ϕem: ±10%, perylene in cyclohexane as reference; for τ1: fluorescence lifetime component 1; for τ2: fluorescence lifetime component 2; for f1: fraction of lifetime component 1; for f2: fraction of lifetime component 2
[3] = physiologically relevant concentrations; cited from earlier work

ERBB2, sequence (P04626 23-1255): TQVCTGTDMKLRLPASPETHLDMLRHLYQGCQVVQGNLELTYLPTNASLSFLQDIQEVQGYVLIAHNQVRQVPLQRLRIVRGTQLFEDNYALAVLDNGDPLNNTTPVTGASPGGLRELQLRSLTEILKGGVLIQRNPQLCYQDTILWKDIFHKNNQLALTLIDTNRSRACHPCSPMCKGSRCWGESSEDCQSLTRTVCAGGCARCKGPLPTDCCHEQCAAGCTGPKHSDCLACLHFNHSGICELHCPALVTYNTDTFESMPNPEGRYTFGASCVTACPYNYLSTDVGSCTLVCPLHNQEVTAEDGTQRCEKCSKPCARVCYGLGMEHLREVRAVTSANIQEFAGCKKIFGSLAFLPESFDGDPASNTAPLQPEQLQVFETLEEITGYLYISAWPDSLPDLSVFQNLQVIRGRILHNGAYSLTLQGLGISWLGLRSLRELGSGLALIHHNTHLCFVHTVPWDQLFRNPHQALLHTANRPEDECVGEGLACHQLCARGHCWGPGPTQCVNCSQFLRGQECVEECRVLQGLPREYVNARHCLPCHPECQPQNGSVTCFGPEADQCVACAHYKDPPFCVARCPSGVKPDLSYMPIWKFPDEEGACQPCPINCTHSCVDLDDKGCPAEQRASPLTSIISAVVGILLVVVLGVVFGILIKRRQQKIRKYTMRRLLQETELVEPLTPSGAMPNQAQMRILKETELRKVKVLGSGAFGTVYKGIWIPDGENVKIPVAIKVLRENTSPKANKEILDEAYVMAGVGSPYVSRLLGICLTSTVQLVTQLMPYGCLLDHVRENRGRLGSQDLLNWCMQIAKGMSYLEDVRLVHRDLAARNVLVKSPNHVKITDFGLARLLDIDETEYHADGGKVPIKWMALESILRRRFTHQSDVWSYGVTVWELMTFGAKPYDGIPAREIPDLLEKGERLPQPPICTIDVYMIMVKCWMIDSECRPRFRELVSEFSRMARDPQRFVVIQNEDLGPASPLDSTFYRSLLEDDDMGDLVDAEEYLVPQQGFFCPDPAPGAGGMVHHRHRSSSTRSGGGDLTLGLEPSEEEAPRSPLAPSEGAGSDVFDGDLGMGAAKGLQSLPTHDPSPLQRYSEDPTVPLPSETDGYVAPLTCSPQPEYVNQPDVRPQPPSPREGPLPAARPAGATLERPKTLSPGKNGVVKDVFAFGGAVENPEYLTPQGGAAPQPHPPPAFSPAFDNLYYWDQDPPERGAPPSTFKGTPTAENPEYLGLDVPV

SMILES | Ki (ERBB2) [µM] | inhibition of NRGβ1-induced phosphorylation of ERBB2 (ERBB2; 100 nM probe) | inhibition of NRGβ1-induced phosphorylation of ERBB2 (ERBB2; 10 μM probe) | log Poctanol/water [1] | Δν [2] [cm^–1] | ε [2] | ϕem [2] | τ1 [2] [ns] | τ2 [2] [ns] | f1 [2] | f2 [2] | aggregation [3]
CN(C)c1ccc(-c2ccc3ncnc(Nc4ccccc4)c3c2)cc1 [1a, 6-(4-(Dimethylamino)phenyl)-N-phenylquinazolin-4-amine] | 10 | little to no inhibitory action | showed inhibition | 1.50 |  |  |  |  |  |  |  | 
COc1ccc(-c2ccc3ncnc(Nc4ccccc4)c3c2)cc1 [1b, 6-(4-Methoxyphenyl)-N-phenylquinazolin-4-amine] |  |  |  |  | 9130 | 14 300 M^–1 cm^–1 | 0.02 | 1.39 | 6.76 | 0.70 | 0.30 | 
O=[N+]([O-])c1ccc(-c2ccc3ncnc(Nc4ccccc4)c3c2)cc1 [1e, 6-(4-Nitrophenyl)-N-phenylquinazolin-4-amine] |  |  |  |  | 6480 | 19 700 M^–1 cm^–1 | 0.006 | 0.11 | 1.56 | 0.74 | 0.26 | 
CN(C)c1ccc(/C=C/c2ccc3ncnc(Nc4ccccc4)c3c2)cc1 [2a, (E)-6-(4-Dimethylaminostyryl)-N-phenylquinazolin-4-amine] |  | little to no inhibitory action | showed inhibition |  |  |  |  |  |  |  |  | 
C(=C\c1ccc2ncnc(Nc3ccccc3)c2c1)/c1ccccc1 [2c, (E)-N-Phenyl-6-styrylquinazolin-4-amine] |  |  |  |  | 7350 | 21 900 M^–1 cm^–1 | 0.02 | 0.05 | 1.75 | 0.11 | 0.89 | 
O=[N+]([O-])c1ccc(/C=C/C=C/c2ccc3ncnc(Nc4ccccc4)c3c2)cc1 [3e, 6-((1E,3E)-4-(4-Nitrophenyl)buta-1,3-dienyl)-N-phenylquinazolin-4-amine] |  | little to no inhibitory action | showed inhibition |  |  |  |  |  |  |  |  | 
CS(=O)(=O)CCNCc1ccc(-c2ccc3ncnc(Nc4ccc(OCc5cccc(F)c5)c(Cl)c4)c3c2)o1 [lapatinib] |  |  |  |  |  |  |  |  |  |  |  | significant aggregation
